Reference: ChEMBL document CHEMBL4387741, “Optimization of novel reversible Bruton's tyrosine kinase inhibitors identified using Tethering-fragment-based screens” (Bioorg Med Chem, 2019)
In brackets after ≈: the same amount, converted by molar mass.

Tests used:
[1] = system: Tyrosine-protein kinase ABL1 (Homo sapiens), P00519 [F317I]; assay: Inhibition of human non-phosphorylated ABL1 F317I mutant (S229 to K512 residues) expressed in mammalian expression system at 1 uM by Kinomescan method relative to control
[2] = target: Activin receptor type-2B (Homo sapiens) (UniProt Q13705); assay: Inhibition of wild-type human ACVR2B (H169 to D504 residues) expressed in bacterial expression system at 1 uM by Kinomescan method relative to control
[3] = target: Calcium/calmodulin-dependent protein kinase type II subunit gamma (Homo sapiens) (UniProt Q13555); assay: Inhibition of wild-type human partial length CAMK2G (R9 to A303 residues) expressed in bacterial expression system at 1 uM by Kinomescan method relative to control
[4] = target: Calcium/calmodulin-dependent protein kinase kinase 2 (Homo sapiens) (UniProt Q96RR4); assay: Inhibition of wild-type human partial length CAMKK2 (D65 to V471 residues) expressed in bacterial expression system at 1 uM by Kinomescan method relative to control
[5] = target: Dual specificity protein kinase CLK1 (Homo sapiens) (UniProt P49759); assay: Inhibition of wild-type human full length CLK1 (M1 to I484 residues) expressed in bacterial expression system at 1 uM by Kinomescan method relative to control
[6] = target: Casein kinase I isoform delta (Homo sapiens) (UniProt P48730); assay: Inhibition of wild-type human full length CSNK1D (M1 to K409 residues) expressed in bacterial expression system at 1 uM by Kinomescan method relative to control
[7] = target: Casein kinase I isoform epsilon (Homo sapiens) (UniProt P49674); assay: Inhibition of wild-type human full length CSNK1E (M1 to K416 residues) expressed in bacterial expression system at 1 uM by Kinomescan method relative to control
[8] = target: Dual specificity tyrosine-phosphorylation-regulated kinase 1A (Homo sapiens) (UniProt Q13627); assay: Inhibition of wild-type human partial length DYRK1A (H129 to S509 residues) expressed in mammalian expression system at 1 uM by Kinomescan method relative to control
[9] = target: LIM domain kinase 2 (Homo sapiens) (UniProt P53671); assay: Inhibition of wild-type human full length LIMK2 (M1 to P638 residues) expressed in bacterial expression system at 1 uM by Kinomescan method relative to control
[10] = target: Dual specificity mitogen-activated protein kinase kinase 2 (Homo sapiens) (UniProt P36507); assay: Inhibition of wild-type human full length MEK2 (M1 to V400 residues) expressed in mammalian expression system at 1 uM by Kinomescan method relative to control
[11] = target: Cyclin-dependent kinase 17 (Homo sapiens) (UniProt Q00537); assay: Inhibition of wild-type human full length PCTK2 (M1 to F523 residues) expressed in bacterial expression system at 1 uM by Kinomescan method relative to control
[12] = target: Mitogen-activated protein kinase kinase kinase 7 (Homo sapiens) (UniProt O43318); assay: Inhibition of wild-type human partial length TAK1 (M1 to Q303 residues) expressed in mammalian expression system at 1 uM by Kinomescan method relative to control
[13] = Kinetic solubility of the compound at pH 1.5 by shake flask assay; assay type: physicochemical; conditions: buffer, read-out: Kinetic_solubility
[14] = target: Dual specificity protein kinase CLK4 (Homo sapiens) (UniProt Q9HAZ1); assay: Inhibition of wild-type human partial length CLK4 (R135 to K481 residues) expressed in bacterial expression system at 10 uM by Kinomescan method relative to control
[15] = target: Casein kinase II subunit alpha' (Homo sapiens) (UniProt P19784); assay: Inhibition of wild-type human full length CSNK2A2 (M1 to R350 residues) expressed in mammalian expression system at 10 uM by Kinomescan method relative to control
[16] = system: Epidermal growth factor receptor (Homo sapiens), P00533 [L858R,T790M]; assay: Inhibition of human partial length EGFR L858R/T790M double mutant (R669 to V1011 residues) expressed in mammalian expression system at 10 uM by Kinomescan method relative to control
[17] = target: Mitogen-activated protein kinase 6 (Homo sapiens) (UniProt Q16659); assay: Inhibition of wild-type human partial length ERK3 (M1 to P413 residues) expressed in bacterial expression system at 10 uM by Kinomescan method relative to control
[18] = target: Mitogen-activated protein kinase 4 (Homo sapiens) (UniProt P31152); assay: Inhibition of wild-type human partial length ERK4 (M1 to L365 residues) expressed in bacterial expression system at 10 uM by Kinomescan method relative to control
[19] = target: Focal adhesion kinase 1 (Homo sapiens) (UniProt Q05397); assay: Inhibition of wild-type human partial length FAK (D402 to R696 residues) expressed in bacterial expression system at 10 uM by Kinomescan method relative to control
[20] = system: Mast/stem cell growth factor receptor Kit (Homo sapiens), P10721 [D816H]; assay: Inhibition of human partial length KIT D816H mutant (I571 to D952 residues) expressed in mammalian expression system at 10 uM by Kinomescan method relative to control
[21] = target: MAP kinase-activated protein kinase 2 (Homo sapiens) (UniProt P49137); assay: Inhibition of wild-type human partial length MAPKAPK2 (V48 to D345 residues) expressed in bacterial expression system at 10 uM by Kinomescan method relative to control
[22] = system: Phosphatidylinositol 4,5-bisphosphate 3-kinase catalytic subunit alpha isoform (Homo sapiens), P42336 [C420R]; assay: Inhibition of human partial length PIK3CA C420R mutant (R108 to N1068 residues) expressed in mammalian expression system at 10 uM by Kinomescan method relative to control
[23] = target: cAMP-dependent protein kinase catalytic subunit PRKX (Homo sapiens) (UniProt P51817); assay: Inhibition of wild-type human partial length PRKX (M1 to F358 residues) expressed in bacterial expression system at 10 uM by Kinomescan method relative to control
[24] = target: Ribosomal protein S6 kinase alpha-2 (Homo sapiens) (UniProt Q15349); assay: Inhibition of wild-type human partial length N-terminal RSK3 kinase domain 1 (M1 to Q385 residues) expressed in bacterial expression system at 10 uM by Kinomescan method relative to control
[25] = target: Serine/threonine-protein kinase Sgk3 (Homo sapiens) (UniProt Q96BR1); assay: Inhibition of wild-type human partial length SGK3 (M119 to L496 residues) expressed in mammalian expression system at 10 uM by Kinomescan method relative to control
[26] = target: Non-receptor tyrosine-protein kinase TNK1 (Homo sapiens) (UniProt Q13470); assay: Inhibition of wild-type human full length TNK1 (M1 to P661 residues) expressed in bacterial expression system at 10 uM by Kinomescan method relative to control
[27] = target: Non-receptor tyrosine-protein kinase TYK2 (Homo sapiens) (UniProt P29597); assay: Inhibition of wild-type human partial length TYK2 JH1 catalytic domain (V877 to C1187 residues) expressed in mammalian expression system at 10 uM by Kinomescan method relative to control

O=C(Nc1cccc([C@@H]2CN(c3ncnc4[nH]ccc34)CCN2CCO)c1)Nc1c(F)cccc1N1CCCC1
inhibition [1]: 100%
inhibition [2]: 100%
inhibition [3]: 99%
inhibition [4]: 94%
inhibition [5]: 84%
inhibition [6]: 100%
inhibition [7]: 94%
inhibition [8]: 87%
inhibition [9]: 100%
inhibition [10]: 73%
inhibition [11]: 100%
inhibition [12]: 97%
solubility kinetic [13]: 94 µg/mL (≈ 173 µM)

O=C(Nc1cccc([C@H]2CCCN(c3ncnc4[nH]ccc34)C2)c1)Nc1ccccc1N1CCCC1
inhibition [14]: 96%
inhibition [15]: 91%
inhibition [16]: 83%
inhibition [17]: 100%
inhibition [18]: 100%
inhibition [19]: 90%
inhibition [20]: 4.2%
inhibition [21]: 100%
inhibition [22]: 85%
inhibition [23]: 96%
inhibition [24]: 78%
inhibition [25]: 40%
inhibition [26]: 65%
inhibition [27]: 0.6%
